Measured values taken from patent US20210347823A1, “METHODS OF PHYSICOCHEMICAL-GUIDED PEPTIDE DESIGN AND NOVEL PEPTIDES DERIVED THEREFROM” (Massachusetts Institute of Technology, priority 2018, published 2021).
Where no end group is shown, it is not given here.

Assays:
[1] = system: Gram-positive bacteria, Gram-negative bacteria and fungi (twelve different strains); experiment: Liquid growth inhibition MIC against larger panel of microorganisms (MIC average); format: cell-based; settings: average of MIC over twelve different strains
Source text: FIGS. 5A-5D. Antimicrobial activity of second-generation library of synthetic peptides. FIG. 5A. In vitro activity of Pol-CP—NH2 and second generation of analogs against Gram-positive bacteria (Micrococcus luteus, Staphylococcus aureus, Staphylococcus epidermidis and Bacillus megaterium), Funghi (Candida albicans and Candida tropicalis) and Gram-negative bacteria (Escherichia coli, Enterobacter cloacae and Serratia marcescens). Experiments performed in triplicates. FIG. 5B. MIC (μmol L^−1) average vs fH in TFE/Water solution. FIG. 5C. Graph correlating MIC (μmol L^−1) averages vs H and (FIG. 5D) MIC (μmol L^−1) averages vs μH, where dots above the dashed line represent peptides with lower activity and dots below the dashed line show peptides with higher activity compared to the wild-type, in which one can observe ranges of optimal activity in determined intervals of H and μH values.
Microorganisms. The following strains were used: Micrococcus luteus A270, Staphylococcus aureus ATCC29213, Staphylococcus epidermidis ATCC12228, Bacillus megaterium ATCC10778 Escherichia coli SBS 363, Enterobacter cloacae ®-12, Serratia marcescens ATCC4112, Candida albicans MDM8, Candida tropicalis IOC4560 from Instituto Butanta, Sao Paulo, Brazil, and Escherichia coli BL21, Pseudomonas aeruginosa PA14, Pseudomonas aeruginosa PA01 and Staphylococcus aureus ATCC12600 from Synthetic Biology Group at MIT.
MIC assays. The MIC assays were performed using the broth microdilution method (Wiegand I. et al., Protoc. 3, 163-175 (2008); de la Fuente-Núñez C. et al., Antimicrob. Agents Chemother. 56, 2696-2704 (2012)) in sterile 96-well polypropylene microtiter plates. Peptides were added to the plate as solutions in BM2 minimal medium in concentrations ranging from 0 to 128 ? mol L^−1, and the bacteria were inoculated at a final concentration of 5×10^5 CFU mL^−1 per well. The plates were incubated at 37° C. for 24 h. The MIC was defined as the lowest concentration of compound at which no growth was observed. Additional liquid growth inhibition assays were done in Peptone Broth (PB, 0.5% NaCl, 1% Peptone at pH 7.4) and Potato Dextrose Broth (Invitrogen) were used for antibacterial and antifungal assays, respectively. Briefly, bacteria or fungi were incubated with serial dilutions of polybia-CP and analogs (50-0.09 μmol L^−1) in a 96-well microplate at 37° C. The microbial growth was assessed by measurements in a model 354 Multiskan Ascent microplate reader at A595nm, after 18 and 24 h (bacteria and fungi, respectively) incubation on a model 347CD FANEM incubator. MIC was defined as the minimal inhibitory concentration that prevents 100% of the bacterial growth. All assays were done in triplicate.

human red blood cells = experiment: Hemolytic activity assay; format: cell-based; settings: for HC50: concentration needed for 50% hemolysis, human RBC in PBS, room temperature, 1 h, 0.1-100 μmol L^−1
Protocol: (§1) FIGS. 6A-6B. Hemolysis and resistance to protease-mediated degradation of engineered peptides. FIG. 6A. Schematic of experimental design and hemolytic assay results of Pol-CP—NH2 and derivatives, where hemolytic activity was evaluated by incubating the peptides (0.1-100 μmol L^−1) with human red blood cells in PBS at room temperature for 1 h. Experiments were performed in triplicate, (*p<0.05). FIG. 6B. Resistance to degradation of Pol-CP—NH2 and analogs exposed to fetal bovine serum (FBS) proteases for 6 h. Experiments were done in triplicate.
Hemolytic Activity Assays. Human erythrocytes were collected and washed three times by centrifugation at 300×g with PBS (pH 7.4). After the last centrifugation, the cells were resuspended in PBS pH 7.4. Aliquots at a concentration of 0.1 to 100 ? mol L^−1 of the peptides were added to the 96-well microplate, where in each well containing 50 ? L of a suspension of erythrocytes to 0.4% in a phosphate saline buffer (10 mmol L^−1 Na2HPO4, 1.8 mmol L^−1 […], pH 7.4, 137 mmol L^−1 NaCl and 2.7 mmol L^−1KCl). After that, the samples were incubated at room temperature for 1 h. Hemolysis was determined by reading absorbance at 405 nm of each well in a bed of plates. 1% SDS in PBS solution was used as positive control (Shalel S. et al., J. Colloid Interface Sci. 252, 66-76 (2002); Love L. J. Cell. Comp. Physiol. 36, 133-148 (1950)) and as negative control was used PBS only. MHC was defined as the maximal non-hemolytic concentration.

[2] = system: HEK293 human embryonic kidney cells; experiment: Cytotoxicity assay (MTS); format: cell-based; settings: for Cytotoxicity: HEK293, 48 h, MTS, peptides 0-64 μmol L^−1
Protocol: FIGS. 7A-7B. Cytotoxicity of engineered peptides. FIG. 7A. Schematic of the experimental design for cytotoxicity assays of Pol-CP—NH2 and derivatives against HEK293 human embryonic kidney cells. Briefly, cells were cultured in DMEM medium supplemented with FBS and antibiotics at 37° C. and 5% CO2. FIG. 7B. Results obtained by seeding HEK293 50,000 cells and incubating with peptides' solution (0-64 μmol L^−1) at 37° C. for 48 h. Cell viability was measured by MTS assay. All experiments were performed in triplicate.
Cytotoxicity assays. Human embryonic kidney 293 (HEK 293) cells were cultured in Dulbecco's Modified Eagle Medium (DMEM) supplemented with 10% Fetal Bovine Serum (FBS) and 1% penicillin-streptomycin at 37° C. in 5% CO2. The day before treatment, 50,000 HEK 293 cells were seeded into each well in 96-well plates. The peptides were added at concentrations ranging from 0 to 64 ? mol L^−1 and 48 h after exposure, cell viability was measured by means of MTS (dimethylthiazol-carboxymethoxyphenyl-sulfophenyl-tetrazolium) assay. Experiments were performed in triplicate for each condition.

[3] = Stability assay in fetal bovine serum; format: in vitro ADME; settings: for resistance to protease-mediated degradation: fetal bovine serum, 6 h
Protocol: as §1
Stability Assays. The stability assay was performed with GIBCO fetal bovine serum diluted to 25% in water. 20 ? L of a 10 mg mL^−1 peptide solution was added to 1 mL 25% serum solution and kept at 37° C. The experiments were made in triplicate and 100 ? L aliquots were taken at 0, 0.5, 1, 2, 4 and 6 h. 10 ? L of TFA was added to the aliquots and the new solution was kept at 5° C. for 10 min, after that it was centrifuged at 14,000 rpm for 15 min, according to Powell et al. (Powell M. F. et al., Pharm. Res. 10, 1268-1273 (1993)). The reaction kinetics was followed by liquid chromatography and the percentage of remaining peptide was calculated by integrating the peptide peak area.

[4] = system: E. coli BL21, P. aeruginosa PA01 and PA14, and S. aureus ATCC12600; experiment: In vitro antimicrobial activity against first set of bacteria (Ala-scan analogs); format: cell-based; settings: Gram-positive and Gram-negative bacteria
Source text: FIGS. 2A-2E. Design, physicochemical features and activity of Pol-CP—NH2 and Ala-scan analogs. FIG. 2A. Theoretical physicochemical properties of interest of the wild type and Ala-scan analogs, where H denotes hydrophobicity, μH is the hydrophobic moment, q represents the net charge and P/N is the ratio of polar/non-polar residues in the sequence. Top to bottom, left to right the sequences correspond to SEQ ID NOs: 1-13. FIG. 2B. Schematic of the in vitro biological activity experimental design. Briefly, 10^4 bacterial cells and serially diluted peptides (0-128 μmol L^−1) were added to a 96-well plate and incubated at 37° C. One day after the exposure, the solution in each well was measured in a microplate reader (600 nm) to check inhibition of bacteria compared to the untreated controls and presented as heat maps of antimicrobial activities (μmol L^−1) against four bacteria strains: E. coli strain BL21, S. aureus strain ATCC12600 and P. aeruginosa strains PA01, and PA14. Assays were performed in triplicates. FIG. 2C. Graph correlating MIC (μmol L^−1) averages vs H and (FIG. 2D) MIC (μmol L^−1) averages vs μH, where dots […] the dashed line show peptides with higher activity compared to the wild type, in which one can observe ranges of optimal activity in determined intervals of H and μH values. FIG. 2E. […]

| Compound | MIC Average [1] [µmol/L] | HC50 (human red blood cells) [µmol/L] | Cytotoxicity [2] [µmol/L] | also measured |
| --- | --- | --- | --- | --- |
| ILGTLLGLKKSL-NH2 [Peptide 13, ILGTLLGLKKSL-NH2] | >50.0 | >100.0 | – | – |
| CC[C@H](C)[C@H](N)C(=O)N[C@@H](CC(C)C)C(=O)NCC(=O)N[C@H](C(=O)N[C@H](C(=O)N[C@@H](CC(C)C)C(=O)NCC(=O)N[C@@H](CC(C)C)C(=O)N[C@@H](CC(C)C)C(=O)N[C@@H](CCCCN)C(=O)N[C@@H](CO)C(N)=O)[C@@H](C)CC)[C@@H](C)O [Peptide 18] | >50.0 | >100.0 | – | – |
| ILGTILALLKSL-NH2 [Peptide 7, ILGTILALLKSL-NH2] | – | – | 32.0 | – |
| ILGTILGLLKAL-NH2 [Peptide 11, ILGTILGLLKAL-NH2] | – | – | 64.0 | – |
| ILGTILGLFKSL-NH2 [Peptide 17, ILGTILGLFKSL-NH2] | 20.0 | 50.0 | – | hemolytic activity (concentration at which hemolytic) (human red blood cells; human red blood cells, range evaluated 0-100 μmol L^−1, listed as [Phe]^9-Pol-CP—NH2): ~50 µmol/L; hemolytic activity (human red blood cells; range of concentrations evaluated 0-100 μmol L^−1): hemolytic |
| ILGTALGLLKSL-NH2 [Peptide 5, ILGTALGLLKSL-NH2] | – | – | >64.0 | – |
| ILATILGLLKSL-NH2 [Peptide 3, ILATILGLLKSL-NH2] | – | – | >64.0 | – |
| ILGKILGLLKSL-NH2 [Peptide 15, ILGKILGLLKSL-NH2] | 3.3 | >100.0 | 32.0 | remaining at 6 h, 0.196 mg/mL ([3]; fetal bovine serum diluted to 25% in water, after six hours of exposure to fetal bovine serum, read-out: remaining peptide (% of initial concentration added)): ~50%; resistance to protease-mediated degradation [3]: increased resistance to protease-mediated degradation; cytotoxic concentration relative to MIC against P. aeruginosa ([2]; HEK293 cytotoxicity vs MIC): two- to four-fold higher |
| GLGTILGLLKSL-NH2 [Peptide 20, GLGTILGLLKSL-NH2] | 16.7 | >100.0 | >64.0 | resistance to protease-mediated degradation [3]: degraded in a few minutes |
| ILGTIAGLLKSL-NH2 [Peptide 6] | – | – | – | antimicrobial activity compared with wild type [4]: preserved the antimicrobial activity |
| ILGTKLGLLKSL-NH2 [Peptide 14, ILGTKLGLLKSL-NH2] | >50.0 | >100.0 | – | – |
